From publication PMC3753754, “Andrographis paniculata Extract and Andrographolide Modulate the Hepatic Drug Metabolism System and Plasma Tolbutamide Concentrations in Rats” (Evidence-based Complementary and Alternative Medicine : eCAM, 2013)

How the values were obtained:
[1] = tested on: Cytochrome b5; test: Cytochrome b5 content in liver microsomes of treated rats; format: in vivo; conditions: rat liver microsomes; oral 2 g/kg APE or 50 mg/kg AND daily for 5 days
Experimental: (§1) Liver was homogenized (1 : 4, w/v) in an ice-cold potassium phosphate buffer (pH 7.4) containing 7.4 mM K2HPO4, 2.6 mM KH2PO4, 1.15% KCl, and 1 mM phenylmethylsulfonyl fluoride (PMSF). Tissue homogenates were centrifuged at 10,000 ×g for 30 min at 4°C. The resulting supernatant was then centrifuged at 105,000 ×g for 1 h at 4°C. The microsomes thus obtained were washed several times to get rid of possible tolbutamide contamination and this can avoid tolbutamide interference of CYP activity, and the microsomes were then suspended in potassium phosphate buffer (pH 7.7) containing 7.5 mM K2HPO4, 14.5 mM KH2PO4, and 1 mM EDTA. […] Metabolites of each CYP enzyme reaction were determined by LC/MS as reported previously. The contents of total CYP and cytochrome b5 were quantified by the method of Omura and Sato [29]. Enzyme activity is expressed as picomoles of metabolite formed per minute per milligram of protein. The NADPH-CYP reductase activity was measured as described by Phillips and Langdon with the use of cytochrome c as the substrate. The microsomal protein concentration was determined by using a Coomassie Plus protein assay kit (Pierce, Rockford, IL, USA).

[2] = tested on: Glutathione S-transferase; test: GST activity in liver of treated rats; format: in vivo; conditions: rat liver; oral 2 g/kg APE or 50 mg/kg AND daily for 5 days
Experimental: The microsomal UGT activity was determined by using p-nitrophenol as the substrate. The rate of formation of p-nitrophenol glucuronic acid was measured by HPLC/UV [31]. GST activity was determined spectrophotometrically by measuring the formation rate of GSH conjugates.

[3] = tested on: CYP4A; test: Lauric acid 12-hydroxylation in liver microsomes of treated rats; format: in vivo; conditions: rat liver microsomes; oral 2 g/kg APE or 50 mg/kg AND daily for 5 days
Experimental: as §1

[4] = Pharmacokinetics of tolbutamide in control, APE-pretreated and andrographolide-pretreated rats; format: in vivo, Sprague-Dawley rats; conditions: rats, 2 g/kg/day APE or 50 mg/kg/day andrographolide for 5 days before 20 mg/kg tolbutamide
Experimental: Seven-week-old male Sprague-Dawley rats cannulated in the jugular vein were purchased from the Bio LASCO Experimental Animal Center (Taipei, Taiwan). The animals were fed a standard rat diet and were randomly assigned into control, APE-treated, and andrographolide-treated groups (n = 5). Rats were housed in plastic cages in a room kept at 23 ± 1°C and 60 ± 5% relative humidity with a 12-hour light and dark cycle. Food and drinking water were available ad libitum. Control rats were orally administered methyl cellulose. […] After the 5th daily dose, rats were deprived of food overnight. On day 6, a 20 mg/kg oral dose of tolbutamide, as a solution in Cremophor EL (polyoxyl 35 hydrogenated castor oil, Sigma)/ethanol/water (30/10/60, v/v/v), was administered to each rat. After the administration of tolbutamide, serial blood samples were collected up to 12 h after dosing from each rat. The animals were then killed by exsanguination, and the livers were collected.
Tolbutamide was prepared in a solution of Cremophor EL/ethanol/water (30/10/60, v/v/v). After administration, blood samples (~200 μL) were collected from the tail vein of each rat at 0.25, 0.5, 1, 2, 4, 8, and 12 h after dosing. Plasma was separated from blood by centrifugation (4000 ×g for 20 min at 4°C). An aliquot of 50 μL plasma was mixed with 100 μL acetonitrile and then centrifuged at 10,000 ×g for 15 min at 4°C. The supernatant was used to determine the concentration of tolbutamide by LC/MS. Calibration standards of tolbutamide were prepared by serial dilution of a tolbutamide stock solution with blank plasma, yielding final concentrations of tolbutamide ranging from 1 to 300 μg/mL of plasma.
The HPLC system consisted of an Agilent 1100 series LC System (Palo Alto, CA) and an Agilent Zorbax Eclipse XDB-C8 column (3 μm, 3.0 mm × 150 mm), interfaced to an Agilent MSD mass spectrometer equipped with an electrospray ionization source. Column temperature was set at 25°C. The initial mobile phase composition was 30% acetonitrile containing 10 mM ammonium acetate (solvent A) and 70% of 0.1% formic acid (solvent B). The following gradient system was used: 30% A to 50% A (0-1 min), 50% A to 98% A (1–3 min), 98% A (3–9 min), 98% A to 30% A (9-10 min), and 30% A (10–15 min). The flow rate was 0.5 mL/min. Sample injection volume was 10 μL. The MS data acquisition was via selected ion monitoring. The positive ion of the testing compound was selected, and the peak size was measured. The area under the plasma tolbutamide concentration versus time curve (AUC) was calculated by using the trapezoidal method.

Cytochrome b5 content [1]: 327 ± 79 pmol/mg protein | Glutathione S-transferase activity [2]: 634 ± 62 nmol/min/mg protein | Lauric acid 12-hydroxylase (4A) [3]: 214 ± 88 pmol/min/mg protein
Structure (SMILES): C=C1CC[C@@H]2[C@](C)(CO)[C@H](O)CC[C@@]2(C)[C@@H]1C/C=C1/C(=O)OC[C@H]1O [andrographolide, Andrographolide]
Reduction of the AUC0–12 h of tolbutamide compared with controls [4]: 18%
